Laboratory results: ChEMBL document CHEMBL1955862, “Novel N'-benzylidene benzofuran-3-carbohydrazide derivatives as antitubercular and antifungal agents” (2012)
In brackets after ≈: the same amount, converted by molar mass.

What was measured:
[1] = test system: Mycobacterium tuberculosis; experiment: Antituberculosis activity against Mycobacterium tuberculosis H37Rv by REMA method; type: functional
[2] = test system: Candida albicans; experiment: Antifungal activity against Candida albicans; type: functional

| Structure (SMILES) | MIC [1] [µg/mL] | MIC [2] [µg/mL] |
| --- | --- | --- |
| O=C(N/N=C/c1ccccc1)c1coc2ccccc12 | 2 (≈ 7.57 µM) | > 250 |
| COc1ccc(/C=N/NC(=O)c2coc3ccccc23)c(OC)c1 | 128 (≈ 395 µM) | > 250 |
| O=C(N/N=C/c1ccc(O)cc1)c1coc2ccccc12 | 64 (≈ 228 µM) | > 250 |
| O=C(N/N=C/c1ccccc1O)c1coc2ccccc12 | 64 (≈ 228 µM) | > 250 |
| O=C(N/N=C/c1ccc(Cl)cc1)c1coc2ccccc12 | 128 (≈ 428 µM) | > 250 |
| Cc1ccc(/C=N/NC(=O)c2coc3ccccc23)cc1 | 128 (≈ 460 µM) | > 250 |
| O=C(N/N=C/c1ccc([N+](=O)[O-])cc1)c1coc2ccccc12 | 128 (≈ 414 µM) | > 250 |
| O=C(N/N=C/c1cc(Cl)cc(Cl)c1O)c1coc2ccccc12 | 128 (≈ 367 µM) | 31.2 (≈ 89.5 µM) |
| O=C(N/N=C/c1cccc2ccccc12)c1coc2ccccc12 | 128 (≈ 407 µM) | 125 (≈ 398 µM) |
| O=C(N/N=C/c1c(Cl)cccc1Cl)c1coc2ccccc12 | 128 (≈ 384 µM) | > 250 |
| O=C(N/N=C/c1ccccc1)c1coc2c(Cl)cc(Cl)cc12 | 2 (≈ 6 µM) | > 250 |
| COc1ccc(/C=N/NC(=O)c2coc3c(Cl)cc(Cl)cc23)c(OC)c1 | 64 (≈ 163 µM) | > 250 |
| O=C(N/N=C/c1ccc(O)cc1)c1coc2c(Cl)cc(Cl)cc12 | 128 (≈ 367 µM) | > 250 |
| O=C(N/N=C/c1ccccc1O)c1coc2c(Cl)cc(Cl)cc12 | 32 (≈ 91.6 µM) | > 250 |
| O=C(N/N=C/c1ccc(Cl)cc1)c1coc2c(Cl)cc(Cl)cc12 | 128 (≈ 348 µM) | > 250 |
| Cc1ccc(/C=N/NC(=O)c2coc3c(Cl)cc(Cl)cc23)cc1 | 128 (≈ 369 µM) | < 15.6 |
| O=C(N/N=C/c1ccc([N+](=O)[O-])cc1)c1coc2c(Cl)cc(Cl)cc12 | 128 (≈ 338 µM) | 125 (≈ 331 µM) |
| O=C(N/N=C/c1cc(Cl)cc(Cl)c1O)c1coc2c(Cl)cc(Cl)cc12 | 128 (≈ 306 µM) | 250 (≈ 598 µM) |
| O=C(N/N=C/c1cccc2ccccc12)c1coc2c(Cl)cc(Cl)cc12 | 128 (≈ 334 µM) | < 15.6 |
| O=C(N/N=C/c1c(Cl)cccc1Cl)c1coc2c(Cl)cc(Cl)cc12 | 128 (≈ 318 µM) | 62.5 (≈ 155 µM) |
| NNC(=O)c1ccncc1 [ISONIAZID] | 0.25 (≈ 1.82 µM) |  |
